29 compounds from ChEMBL document CHEMBL3714719, “Regulating agent of GPR34 receptor function” (2010) can be followed below.

Probable G-protein coupled receptor 34, sequence (Q9UPC5 whole entry): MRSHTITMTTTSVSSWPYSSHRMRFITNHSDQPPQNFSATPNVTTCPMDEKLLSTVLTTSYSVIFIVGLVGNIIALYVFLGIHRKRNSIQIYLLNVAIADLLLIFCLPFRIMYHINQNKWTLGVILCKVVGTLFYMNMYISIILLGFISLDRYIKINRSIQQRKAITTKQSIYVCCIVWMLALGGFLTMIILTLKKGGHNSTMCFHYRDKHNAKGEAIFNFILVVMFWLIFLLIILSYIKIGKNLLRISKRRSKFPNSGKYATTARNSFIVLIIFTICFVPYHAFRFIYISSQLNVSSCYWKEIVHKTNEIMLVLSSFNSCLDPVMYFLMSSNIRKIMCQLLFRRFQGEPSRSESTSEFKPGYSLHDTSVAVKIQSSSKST

The assay addresses Probable G-protein coupled receptor 34 (Homo sapiens, UniProt Q9UPC5). The assay can be described thus: Antagonist activity against human lung GPR34 expressed in CHO cells co-expressing Galpha116 assessed as inhibition of lysophosphatidyl serine-induced increase in intracellular calcium level pre-incubated before lysophosphatidyl serine addition and measured after 180 secs by Fluo 3-AM dye based fluorescent assay. In kind it is functional, cell-based.
On to `O=C(NC(Cc1ccc(OCc2ccccc2F)cc1)C(=O)O)c1cn2cc(-c3ccc(Cl)cc3)ccc2n1` (centres undefined), for which the IC50 (in general, the concentration that gives 50% inhibition) was not above 1000 nM. As for `Nc1c(C(=O)NC(Cc2ccc(OCc3ccccc3)cc2)C(=O)O)oc2ccc(-c3ccc(Cl)cc3)cc12` (centres undefined), the figure is not above 1000 nM; as for `O=C(O)C1(NS(=O)(=O)Cc2ccc(F)cc2)Cc2ccc(-c3ccc(Cl)cc3)cc2C1` (centres undefined), not above 1000 nM; as for `O=C(Cc1ccc(OCc2ccsc2)cc1)NC1(C(=O)O)Cc2ccc(-c3ccc(Cl)cc3)cc2C1` (centres undefined), not above 1000 nM. As for `O=C(NC(Cc1ccc(OCc2cccc(F)c2)cc1)C(=O)O)c1cn2cc(-c3ccc(Cl)cc3)ccc2n1` (centres undefined), the figure is not above 1000 nM; as for `O=C(NC(Cc1ccc(OCc2ccccc2)cc1)c1nnn[nH]1)c1cn2nc(-c3ccc(Cl)cc3)ccc2n1` (centres undefined), not above 1000 nM; as for `O=C(Cc1ccc(OCc2ccc(F)cc2)cc1)NC1(C(=O)O)Cc2ccc(-c3cccc(Cl)c3)cc2C1` (centres undefined), not above 1000 nM. Take `Cc1c(C(=O)N[C@@H](Cc2ccc(OCc3ccoc3)cc2)C(=O)O)oc2cc(-c3ccc(Cl)cc3)ccc12`: the IC50 is not above 1000 nM. `O=C(Cc1ccc(OCc2ccc(F)cc2)cc1)NC1(C(=O)O)Cc2ccc(-c3ccc(Cl)s3)cc2C1` (centres undefined): the IC50 is not above 1000 nM. As for `Cc1c(C(=O)N[C@@H](Cc2ccc(OCc3ccccc3)cc2)C(=O)O)oc2cc(-c3ccc(Cl)cc3)ccc12`, the figure is not above 1000 nM; as for `Nc1ccccc1COc1ccc(CC(=O)NC2(C(=O)O)Cc3ccc(-c4ccc(Cl)cc4)cc3C2)cc1` (centres undefined), not above 1000 nM.

`O=C(N[C@@H](Cc1ccc(OCc2ccsc2)cc1)C(=O)O)c1cn2cc(-c3ccc(Cl)cc3)ccc2n1`: the IC50 is not above 1000 nM.

In the case of `O=C(Cc1ccc(OC2Cc3ccccc3C2)cc1)NC1(C(=O)O)Cc2ccc(-c3ccc(Cl)cc3)cc2C1` (centres undefined), the IC50 is not above 1000 nM.

On to `Cc1c(C(=O)N[C@H](C(=O)O)c2ccc(OCc3ccccc3)cc2)oc2cc(-c3ccc(Cl)cc3)ccc12`, for which the IC50 was not above 1000 nM.

Consider `O=C(Cc1ccc(Oc2ccccc2)cc1)NC1(C(=O)O)Cc2ccc(-c3ccc(Cl)cc3)cc2C1` (centres undefined), for which the IC50 was not above 1000 nM. As for `O=C(Cc1ccc(OCc2ccccc2)cc1)NC1(C(=O)O)Cc2ccc(-c3ccc(Cl)cc3)cc2C1` (centres undefined), the figure is not above 1000 nM; as for `O=C(NC(Cc1ccc(OCc2ccccc2)cc1)C(=O)O)c1cn2cc(CCc3ccccc3)ccc2n1` (centres undefined), not above 1000 nM. Next, `O=C(NC(Cc1ccc(OCc2ccc(F)cc2)cc1)C(=O)O)c1cn2cc(-c3ccc(Cl)cc3)ccc2n1` (centres undefined): not above 1000 nM. Next, `Cc1ccc(COc2ccc(CC(NC(=O)c3cc4ccc(-c5ccc(Cl)cc5)cc4o3)C(=O)O)cc2)cc1` (centres undefined): not above 1000 nM; `Cc1c(C(=O)N[C@@H](Cc2ccc(OCc3ccsc3)cc2)C(=O)O)oc2cc(-c3ccc(Cl)cc3)ccc12`: not above 1000 nM; `O=C(N[C@@H](Cc1ccc(OCc2ccccc2)cc1)C(=O)O)c1cn2ccc(-c3ccc(Cl)cc3)cc2n1`: not above 1000 nM. On to `O=C(Cc1ccc(OCc2ccc(F)cc2)cc1)NC1(C(=O)O)Cc2ccc(-c3ccc(Cl)cc3)cc2C1` (centres undefined), for which the IC50 is not above 1000 nM. As for `O=C(NC(Cc1ccc(OCc2ccccc2)cc1)c1nnn[nH]1)c1cn2cc(-c3ccc(Cl)cc3)ccc2n1` (centres undefined), the figure is not above 1000 nM; as for `Nc1cccc(COc2ccc(CC(=O)NC3(C(=O)O)Cc4ccc(-c5ccc(Cl)cc5)cc4C3)cc2)c1` (centres undefined), not above 1000 nM.

With `O=C(NC(Cc1ccc(OCc2ccc(F)cc2)cc1)C(=O)O)c1cn2ccc(C#Cc3ccccc3)cc2n1` (centres undefined), the IC50 is not above 1000 nM. As for `O=C(Cc1ccc(Oc2nc3ccccc3s2)cc1)NC1(C(=O)O)Cc2ccc(-c3ccc(Cl)cc3)cc2C1` (centres undefined), the figure is not above 1000 nM; as for `O=C(NC(Cc1ccc(OCc2ccc(F)cc2)cc1)C(=O)O)c1nc2cc(-c3ccc(Cl)cc3)ccc2[nH]1` (centres undefined), not above 1000 nM. Next, `O=C(O)CN(Cc1ccc(OCc2ccc(F)cc2)cc1)C(=O)c1cn2cc(-c3ccc(Cl)cc3)ccc2n1`: not above 1000 nM. Next, `O=C(Cc1ccc(OCc2ccc(F)cc2)cc1)NC1(C(=O)O)Cc2ccc(-c3ccccc3Cl)cc2C1` (centres undefined): not above 1000 nM.
